Source: the NIST ThermoML archive (doi:10.1016/j.tca.2012.03.028)

Tests used:
[1] = Crystal; Differential scanning calorimeter
[2] = Molar enthalpy of transition or fusion; conditions: Crystal; Differential scanning calorimeter

Normal melting temperature [1] [°C]	Molar enthalpy of transition or fusion [2] [kJ/mol]	Compound
95	23.3	O=C(C(=O)c1ccccc1)c1ccccc1 [1,2-diphenylethanedione]
147.2	31.2	O=C(O)C(c1ccccc1)c1ccccc1 [2,2-diphenylethanoic acid]
114.4	21.8	CC(=O)Nc1ccccc1 [N-phenylethanamide]
122.4	18	O=C(O)c1ccccc1 [benzoic acid]
80.2	18.8	c1ccc2ccccc2c1 [naphthalene]
41.8	19	O=C(Oc1ccccc1)c1ccccc1O [phenyl salicylate]

Compound	Normal melting temperature [1] [°C]	Molar enthalpy of transition or fusion [2] [kJ/mol]
c1ccc(-c2ccccc2)cc1 [biphenyl]	69.0	18.5
